# Assay results taken from US20190133518A1, “METHODS AND SYSTEMS FOR DETERMINING DIURETIC RESPONSE PROFILES” (PACESETTER, INC., priority 2017, published 2019).
# System: patient
# Assay: Mean PAP measurements of a patient before and after taking medication (Example 1, medication modification)
# Format: in vivo
# Description: In accordance with the present disclosure, an exemplary embodiment is as follows. A patient implanted with CARDIOMEMS, instead of simply providing a single reading each day, provides a reading twice a week (or daily) via the following protocol: First, the patient wakes up in the morning and takes a PAP reading (prior to any medication ingestion). Immediately thereafter, the patient takes all medications, which include HF medications including diuretic(s). A timer goes off in the bed-side monitor (patient home electronics unit), and about sixty minutes later, the patient takes another PAP recording. As noted elsewhere throughout this disclosure, the timing between readings is variable.
# The protocol based recordings are marked with a unique identifier and transmitted to a database (e.g., Merlin.net database). The protocol based PAP recordings are then used to determine the diuretic response profile of the patient. Specifically, the response profile is determined using PAP measurement data-points at time […] (pre medication) and time (t2) (“x” minutes after medication) and the time constant of the specific diuretic via, for example, a polynomial regression fit. For example, the time constant of furosemide is shorter than the longer acting thiazide diuretic.
# This example examined the characterization/determination of medication dosage and temporal response in a patient given different kinds of medication. […] The mean PAP measurement of the patient at time (t1) was about 35 mmHg. […].
smiles,measurement,setting,value
NS(=O)(=O)c1cc(C(=O)O)c(NCc2ccco2)cc1Cl [furosemide],average PAP measurement at time (t2),"week 1, 80 mg furosemide, about 1 hour after medication (FIG. 6A)",about 19 mmHg
same,mean PAP measurement at time (t3),"week 1, 80 mg furosemide, about 2 hours after medication (FIG. 6A)",about 21 mmHg
same,mean PAP measurement at time (t1),"week 1, 80 mg furosemide, t1 prior to medication (FIG. 6A)",about 35 mmHg
same,mean PAP measurements at time (t2) and time (t3) compared with week 1,"week 2, 80 mg furosemide (FIG. 6B)",similar
same,mean PAP measurement after medication,"week 2, 80 mg furosemide, after medication (FIG. 6B)",about 19 mmHg
same,mean PAP measurement at time (t1),"week 2, 80 mg furosemide, t1 prior to medication (FIG. 6B)",about 31 mmHg
same,diuretic profile in the patient,"week 10, 80 mg furosemide (FIG. 6C)",early signs of developing diuretic resistance
same,mean PAP measurement at time (t1),"week 10, 80 mg furosemide, prior to ingestion of the medication (FIG. 6C)",about 31 mmHg
same,mean PAP measurement after medication,"week 10, 80 mg furosemide, time (t2) and time (t3) (FIG. 6C)",about 27 mmHg
